Source: patent publication US8715155B2, “Embryo development and survival” (University of Tennessee Research Foundation, priority 2005, dated 2014)

Assays:
[1] = tested on: Pre-compacted 16- to 32-cell stage bovine embryos; details: 1000 nM AL-8810 + 1 ng/ml PGF, 48 h culture, assessed day 8
Protocol: Pre-compacted 16- to 32-cell stage bovine embryos (day 4 post fertilization) are washed in KSOM-PVA and divided into four groups, each of which is cultured for 48 hours in KSOM-PVA containing one of the following: (1) 1000 nM AL-8810, n=95 (AL-8810 group); (2) 1 ng/ml PGF, n=91 (PGF group); (3) 1000 nM AL-8810+1 ng/ml PGF, n=90 (AL-8810+PGF group); or (4) KSOM-PVA without AL-8810 or PGF, n=84 (Control group).
Following the 48 hour culture, embryos from each group are placed in HEPES-TALP and embryonic development is assessed by a technician who is uninformed of the treatments of the embryos in each group. Embryos from each treatment group are washed in KSOM-PVA and transferred to a 4-well plate with KSOM-PVA for further culture until day 8 post fertilization, when embryonic development is again assessed.

[2] = tested on: bovine cumulus-oocyte-complexes; assay: Maturation of heat-stressed cumulus-oocyte-complexes with a PGF2α antagonist; assay type: cell-based; details: COC matured at 41.0° C. for first 12 h, AL-8810 at 250, 400 or 1000 nM; FIG. 1
Protocol: In a first study, bovine cumulus-oocyte-complexes were divided into three groups. Each of the three groups were matured for 24 hours under heat-stress conditions at 41.0° C. for 12 hours, followed by 38.5° C. for the remaining 12 hours. A first group, referred to as the development control group, was matured utilizing a standard maturation medium. A second group, referred to as the diluent control group, was matured under the same conditions utilizing the same standard maturation medium to which was added a diluent DMSO (dimethyl sulfoxide). A third group, referred to as the treatment group, was matured under the same conditions utilizing the same standard maturation medium to which was added the PGF2α antagonist AL-8810 at a concentration of 250, 400, or 1000 nM. To prepare the diluent control, DMSO was added to the OMM to yield the same concentration as would be contained in the PGF2α antagonist dose being tested (0.0025, 0.004 and 0.01% v/v final concentration for the 250, 400 and 1000 nM doses, respectively). The generalized linear mixed models (GLIMMIX) procedure of SAS version 9.1 (SAS Institute; Cary, N.C.; 2003) was used to perform analyses. Data are presented as least square means±the standard error of the mean. […]

[3] = tested on: embryos placed in recipient animals; assay: Pre-treatment of embryos in recovery and/or freezing/transfer media before embryo transfer; assay type: in vivo, cattle
Protocol: Approximately 100 embryo recoveries are performed on day 7 after estrus in beef and dairy cows (lactating and dry). Cows are superovulated (Folltropin) and embryos recovered, evaluated, and frozen (1.5 M Ethylene Glycol; EG) as previously reported (Schrick et al., Biol. Reprod. 49:617-621 (1993)). Half of the embryo recoveries occur utilizing 1 L of each of the following alternative media preparations: 1) Embryo recovery (flush) media (CON, n=50 recoveries; Dulbecco's PBS+1% FCS; GibcoBRL, Cat.#21300-025; Grand Island, N.Y.) or 2) Embryo recovery (flush) media+AL-8810 (TRT, n=50 recoveries; 430 nM of AL-8810).
Following filtering, embryo dishes are searched, embryos removed (placed in Vigro), and evaluated for quality and development (IETS guidelines). […]
Over a two year period, recipient animals (dairy and beef cows and heifers; n=500) have estrus synchronized utilizing GnRH/CIDR/Estrumate protocol consisting of administration of 100 ug GnRH (Cysterolin; Merial) and CIDR (intravaginal progesterone releasing device; Pfizer) insertion on day 0, CIDR removal and injection of 2 mL Estrumate (Schering-Plough Animal Health) on day 7, and estrous detection (twice daily) from days 8 through 12. […] Embryos used for ET are thawed (10 sec air thaw; 30 sec in 25° C. water bath), straw labeling (embryo ID) information recorded, and recipient ID collected. […]

[4] = tested on: developmentally challenged bovine oocytes; assay: Maturation of developmentally challenged oocytes with a PGF2α antagonist, then fertilization; assay type: cell-based
Protocol: In a second study, bovine oocytes were obtained from ovaries of slaughtered cows. Oocytes that were developmentally challenged (development of oocyte to blastocyst less than 20%) were included in the study. The oocytes were matured for 24 hours in a standard maturation medium that either contained the PGF2α antagonist AL-8810 (treatment group) or that lacked the PGF2α antagonist (control group) and were then fertilized. Oocytes were observed on day 3 for the presence of cleavage and on day 9 for the presence of blastocyst development. The percentage of oocytes in that underwent cleavage and that developed into blastocysts was determined.

[5] = tested on: Pre-compacted 16- to 32-cell stage bovine embryos; assay: Dose response study of AL-8810 on embryo development; assay type: cell-based; details: 96 h
Protocol: Incubation conditions are 5.5% CO2, 7% O2, and 87.5% N2 at 38.5° C. The four groups are as follows: (1) KSOM-PVA+AL-8810 at 1000 nM, n=93 (High AL-8810 group); (2) KSOM-PVA+AL-8810 at 500 nM, n=95 (Medium AL-8810 group); (3) KSOM-PVA+AL-8810 at 250 nM, n=93 (Low AL-8810 group); and (4) KSOM-PVA with an equivalent volume of DMSO (dimethylsulfoxide) as used for the first three groups, n=95 (Control group).

[6] = oocytes matured 24 h with AL-8810, of those that cleaved

In the case of `O=C(O)CCC/C=C\CC1C(O)CC(F)C1/C=C/C(O)C1Cc2ccccc2C1` (stereo not drawn) [AL-8810, 11β-fluoro-15-epi-15-indanyl-tetranor PGF2α], the “embryonic development in the presence of PGF” value [1] is reported as “decreases the negative effects of PGF on embryonic development”, the “blastocyst development after heat stress” value [2] is reported as “the effect of heat stress to reduce blastocyst development was no longer observed” and the pregnancy rates ([3]; AL-8810 (430 nM in flush media) in embryo recovery and/or freezing/transfer media) is reported as “increases pregnancy rates”. For the same compound, the “abnormalities in calves resulting from the pregnancies” value ([3]; embryos pre-treated with AL-8810 in media) was “No abnormalities are observed in the calves”, the “deleterious or toxic effect on oocytes or developing embryos (stage and development of blastocysts)” value ([4]; oocytes matured 24 h with AL-8810) was “does not exert a deleterious or toxic effect” and the “Cleaved (%)” value ([4]; oocytes matured 24 h with AL-8810, observed day 3) was 60.4%. For the same compound, the “Blastocyst/PZ (%)” value ([4]; oocytes matured 24 h with AL-8810, observed day 9) was 17.7%, the “2-cell (%)” value [4, 6] was 7.2% and the “4-cell (%)” value [4, 6] was 15.2%. The “8 to 16-cell (%)” value [4, 6] was 76.7%, the “early embryonic development of pre-compacted embryos” value ([5]; AL-8810 at 250, 500 and 1000 nM, vs control group) was “does not decrease or increase early embryonic development” and the embryonic development ([5]; High AL-8810 group (1000 nM), vs 49.9+/-3.9% control, p<0.05) was 60.3%+/−3.9.
